For 9 molecules, brain penetration and Ki results are on record in patent US10647727B2, “Substituted pyrazolo/imidazolo bicyclic compounds as PDE2 inhibitors” (Merck Sharp & Dohme Corp., priority 2015, dated 2020).

Each structure is given as a SMILES string. Like-named read-outs stand apart in the source and are kept apart here.

Usually Ki stands for a dissociation constant, usually derived from enzyme kinetics or from competition with a known ligand.

For data set [1] the following is noted: reported in Brandon et al. 2007; cited from earlier work.
Data set [2] has as its target human PDE2A1 (Homo sapiens (Human), UniProt O00408). Put plainly: biochemical. It is filed as biochemical.
The target of data set [3] is Rhesus PDE2A3 (Macaca mulatta, UniProt B3VTJ2). Put plainly: PDE2 fluorescence polarization (IMAP FP) inhibition assay, rhesus enzyme. It is filed as biochemical, rhesus macaque.
Sequence of Rhesus PDE2A3 (B3VTJ2 1-941): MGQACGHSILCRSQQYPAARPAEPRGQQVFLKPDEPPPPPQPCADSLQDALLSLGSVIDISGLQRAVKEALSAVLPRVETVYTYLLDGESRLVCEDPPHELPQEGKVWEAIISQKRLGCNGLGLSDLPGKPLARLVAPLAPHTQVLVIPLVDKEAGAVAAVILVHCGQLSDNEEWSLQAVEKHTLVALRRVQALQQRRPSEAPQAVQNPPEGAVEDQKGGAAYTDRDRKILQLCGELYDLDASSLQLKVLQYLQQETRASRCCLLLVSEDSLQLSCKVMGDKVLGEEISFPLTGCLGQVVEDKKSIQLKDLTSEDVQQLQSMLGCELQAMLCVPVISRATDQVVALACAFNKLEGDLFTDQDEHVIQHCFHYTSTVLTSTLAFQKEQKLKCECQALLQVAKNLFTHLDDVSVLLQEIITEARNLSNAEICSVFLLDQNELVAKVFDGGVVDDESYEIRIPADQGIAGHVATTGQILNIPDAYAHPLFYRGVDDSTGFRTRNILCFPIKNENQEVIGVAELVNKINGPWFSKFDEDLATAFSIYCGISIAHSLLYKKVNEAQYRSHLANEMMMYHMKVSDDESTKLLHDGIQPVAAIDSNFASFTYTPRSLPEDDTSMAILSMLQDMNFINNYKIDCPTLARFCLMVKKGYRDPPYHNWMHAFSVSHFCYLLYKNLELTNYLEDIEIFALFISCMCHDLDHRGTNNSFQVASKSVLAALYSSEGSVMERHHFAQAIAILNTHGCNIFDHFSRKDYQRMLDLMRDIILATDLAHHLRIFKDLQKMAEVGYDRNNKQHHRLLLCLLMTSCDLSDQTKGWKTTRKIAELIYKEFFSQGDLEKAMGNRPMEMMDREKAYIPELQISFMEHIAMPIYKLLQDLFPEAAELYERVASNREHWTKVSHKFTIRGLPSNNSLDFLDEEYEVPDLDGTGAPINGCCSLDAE
Setting [4] is: Lab B, read-out: Human PDE2 Ki (nM) Lab B.
Where [5] appears, read: Lab A, read-out: Rhesus PDE2 Ki (nM) Lab A.
Where [6] appears, read: Lab B, read-out: Rhesus PDE2 Ki (nM) Lab B.

Sequence of human PDE2A1 (O00408 other isoform, or with tags, fused parts or gaps): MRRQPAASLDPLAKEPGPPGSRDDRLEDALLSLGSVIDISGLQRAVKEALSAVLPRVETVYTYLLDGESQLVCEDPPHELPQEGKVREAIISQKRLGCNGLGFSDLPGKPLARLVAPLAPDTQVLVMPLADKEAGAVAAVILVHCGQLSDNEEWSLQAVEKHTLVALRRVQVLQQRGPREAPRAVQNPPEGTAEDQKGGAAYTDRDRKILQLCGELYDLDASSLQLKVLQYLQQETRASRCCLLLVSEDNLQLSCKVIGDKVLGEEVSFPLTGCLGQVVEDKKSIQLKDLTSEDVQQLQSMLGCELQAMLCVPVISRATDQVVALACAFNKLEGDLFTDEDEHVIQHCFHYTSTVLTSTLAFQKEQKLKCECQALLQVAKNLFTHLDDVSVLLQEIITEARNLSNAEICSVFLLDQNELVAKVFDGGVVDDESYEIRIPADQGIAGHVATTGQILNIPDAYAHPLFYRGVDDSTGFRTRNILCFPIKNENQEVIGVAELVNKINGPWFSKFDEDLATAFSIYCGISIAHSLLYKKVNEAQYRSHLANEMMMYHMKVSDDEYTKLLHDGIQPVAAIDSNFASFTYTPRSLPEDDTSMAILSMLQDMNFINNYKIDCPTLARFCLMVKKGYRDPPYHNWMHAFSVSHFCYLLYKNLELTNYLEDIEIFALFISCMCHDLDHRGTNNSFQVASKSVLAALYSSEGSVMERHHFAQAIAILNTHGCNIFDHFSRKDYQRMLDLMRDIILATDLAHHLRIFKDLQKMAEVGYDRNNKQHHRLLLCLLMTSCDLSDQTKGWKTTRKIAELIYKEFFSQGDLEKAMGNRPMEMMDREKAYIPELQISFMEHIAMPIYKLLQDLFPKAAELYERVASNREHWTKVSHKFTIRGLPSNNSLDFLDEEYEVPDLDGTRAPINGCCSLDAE

Consider `COc1ccc(Cc2nn3c([C@@H](CCCc4ccccc4)[C@@H](C)O)nc(C)c3c(=O)[nH]2)cc1OC` [Bay 60-7550], for which, in data set [1], the brain penetration entry is “limited”.

On to `CN(c1nc(Cl)nc2c1cnn2C)C1(c2ccc(C(F)(F)F)cc2)CC1` [Example 17, 6-Chloro-N,1-dimethyl-N-{1-[4-(trifluoromethyl)phenyl]cyclopropyl}-1H-pyrazolo[3,4-d]pyrimidin-4-amine], for which the Ki in data set [2] (setting [4]) stood at 3.8 nM; in data set [3] (setting [5]) it was 1.5 nM; in data set [3] (setting [6]), 6 nM.

For `Cn1ncc2c(NC3(c4ccc(C(F)(F)F)cc4)CC3)nc(C(F)(F)F)nc21` [Example 19, 1-Methyl-6-(trifluoromethyl)-N-(1-(4-(trifluoromethyl)phenyl)cyclopropyl)-1H-pyrazolo[3,4-d]pyrimidin-4-amine], the figures for the Ki in data set [2] (setting [4]) and in data set [3] (setting [6]) were 67 nM and 80 nM, respectively.

On to `Cc1nc(N[C@H](C)c2ccc(C(F)(F)F)cc2)c2cnn(C)c2n1` [Example 21, 1,6-Dimethyl-N-{(1R)-1-[4-(trifluoromethyl)-phenyl]ethyl}-1H-pyrazolo[3,4-d]-pyrimidin-4-amine], for which the Ki is 140 nM in data set [2] (Lab A, read-out: Human PDE2 Ki (nM) Lab A) and 194 nM in data set [3] (setting [5]).

For `Cc1nc(NC2(c3ccc(OC(F)(F)F)c(F)c3)CC2)c2cnn(C)c2n1` [Example 22], the inhibitory constant (Ki) in data set [2] (setting [4]) was found to be 35 nM; in data set [3] (setting [6]), 55 nM.

`Cc1nc(NC2(c3ccc(SC(F)(F)F)cc3)CC2)c2cnn(C)c2n1` [Example 23, 1,6-Dimethyl-N-(1-{4-[(trifluoromethyl)-sulfanyl]phenyl}-cyclopropyl)-1H-pyrazolo[3,4-d]-pyrimidin-4-amine]: the figures for the Ki in data set [2] (setting [4]) and in data set [3] (setting [6]) were 16 nM and 20 nM, respectively.

With `Cc1nc(NC2(c3ccc(C(F)(F)F)cc3)CCC2)c2cnn(C)c2n1` [Example 25, 1,6-Dimethyl-N-{1-[4-(trifluoro-methyl)phenyl]-cyclobutyl}-1H-pyrazolo[3,4-d]-pyrimidin-4-amine], the Ki in data set [2] (setting [4]) was 430 nM; in data set [3] (setting [6]), 358 nM.

For the molecule `Cc1nc(NC2(c3ccc(C(F)(F)F)c(F)c3)CC2)c2cnn(CC(F)(F)F)c2n1` [Example 28, N-{1-[3-Fluoro-4-(trifluoromethyl)phenyl]cyclopropyl}-6-methyl-1-(2,2,2-trifluoroethyl)-1H-pyrazolo[3,4-d]pyrimidin-4-amine], the Ki in data set [2] (setting [4]) worked out at 76 nM; in data set [3] (setting [6]), 98 nM.

Regarding `Cn1ncc2c(NC3(c4ccc(C(F)(F)F)cc4)CC3)nc(C#N)nc21` [Example 29, 1-Methyl-4-{1-[4-(trifluoromethyl)phenyl]cyclopropylamino}-1H-pyrazolo[3,4-d]pyrimidine-6-carbonitrile], the results for the Ki in data set [2] (setting [4]) and in data set [3] (setting [6]) were 39 nM and 47 nM, respectively.
